The values that follow come from article PMC5603573, “Cyclipostins and Cyclophostin analogs as promising compounds in the fight against tuberculosis” (Scientific Reports, 2017).

Series [1] concerns M. tb H37Rv-GFP. Briefly: microbe, parasite or virus in culture. It counts as cell-based, Mycobacterium tuberculosis.
The nature of another series: in vitro. The settings on record: mouse.
Series [2] deals with M. tb H37Rv-GFP replicating inside Raw264.7 macrophages. Briefly: microbe, parasite or virus in culture. The following applies: for MIC50: read-out: Intracellular macrophage growth MIC50. The format is cell-based, Mycobacterium tuberculosis.
The subject of series [3] is serine/cysteine enzymes in M. tb mc^26230 lysate. Description: Competitive ABPP labelling/enrichment with Desthiobiotin-FP (and TAMRA-FP), LC-MS/MS target identification. The format is binding, Mycobacterium tuberculosis. The following applies: lysate pre-incubated with 580 µM inhibitor, 37 °C, 90 min.
Series [4] has as its system M. tb mc^26230-empty vector. Briefly: REMA, empty vector strain. It counts as cell-based, Mycobacterium tuberculosis. The settings on record: Mycobacterium tuberculosis, REMA.
The next series relates to M. tb mc^26230 WT. Description: microbe, parasite or virus in culture. The format is cell-based. The following applies: REMA.
Series [5] concerns M. tb H37Rv-GFP. Also noted: method as in PMID 19876393. The settings on record: M. tb H37Rv-GFP in broth medium; cited from earlier work.
Series [6] has as its system Raw264.7 murine macrophages. Also noted: method as in PMID 19876393. The settings on record: 50% host cell toxicity, Raw264.7 macrophages, read-out: Intracellular macrophage growth CC50, cited from earlier work.
The subject of series [7] is M. tb H37Rv-GFP replicating inside Raw264.7 macrophages. Also noted: method as in PMID 19876393. The following applies: Raw264.7 macrophages infected with M. tb H37Rv-GFP; cited from earlier work.
The subject of series [8] is M. tb. Also noted: method as in earlier work. The following applies: combined application with vancomycin; ref 62 (Orlistat), 28 (Lalistat); cited from earlier work.
For series [9], the system named is M. tb. Also noted: method as in PMID 23029536, PMID 27503643, doi:10.1039/C6MD00231E. The settings on record: M. tb growth, inhibitor alone; cited from earlier work.
The mark [10] stands for this setting: Mycobacterium tuberculosis, H37RV, 120 h, read-out: Extracellular growth MIC50.
Where [11] appears, read: Mycobacterium tuberculosis, H37RV, 120 h.
The mark [12] stands for this setting: read-out: Extracellular growth MIC50.

In brackets after ≈: the same amount, converted by molar mass. Like-named read-outs stand apart in the source and are kept apart here. A value given as a limit tells only on which side of the number the result lay.

In the case of `CCCCCCCCCC[C@@H]1CC[P@](=O)(OC)OC(C)=C1C(=O)OC` (relative stereo) [CyC 7(α)], the results for the MIC50 (with M. tb H37Rv-GFP [1] (setting [10]); in [2] (setting [11])) were 92.6 µM (≈ 34.7 µg/mL) and 4.5 µM (≈ 1.69 µg/mL), respectively. The CC50 in the series “in vitro” was greater than 100 µM.

On to `CCCCCCCCCCCC[C@@H]1CC[P@](=O)(OC)OC(C)=C1C(=O)OC` (relative stereo) [CyC 8(α)], for which the CC50 in “in vitro” was greater than 100 µM. Moreover, the MIC50 in [2] (setting [11]) is 3 to 4 µM (≈ 1.21 to 1.61 µg/mL); in series [2] it was 4.0 µM (≈ 1.61 µg/mL).

Consider `CCCCCC1CCP(=O)(OC)OC(C)=C1C(=O)OC` (stereo not drawn) [CyC 6(β)], for which, in the series on M. tb H37Rv-GFP [1], the “Extracellular growth MIC50” value is “No effect”. This molecule had a CC50 in the series “in vitro” greater than 100 µM. In addition, the MIC50 in [2] (setting [11]) is 12.6 µM (≈ 3.83 µg/mL).

As for `CCCCCCCCCCC1CCP(=O)(OC)OC(C)=C1C(=O)OC` (stereo not drawn) [CyC 7(β)], the MIC50 in the series on M. tb H37Rv-GFP [1] (setting [10]) is 16 to 40 µM (≈ 5.99 to 15 µg/mL); in the series with M. tb H37Rv-GFP [1] (setting [12]), 16.6 µM (≈ 6.22 µg/mL); in series [2] (setting [11]) it was 3 to 4 µM (≈ 1.12 to 1.5 µg/mL); in series [2], 3.1 µM (≈ 1.16 µg/mL). In “in vitro”, the CC50 was greater than 100 µM.

`CCCCCCCCCCCCC1CCP(=O)(OC)OC(C)=C1C(=O)OC` (stereo not drawn) [CyC 8(β)]: the MIC50 in the series on M. tb H37Rv-GFP [1] (setting [10]) was greater than 100 µM; in series [2] (setting [11]) it was 11.7 µM (≈ 4.71 µg/mL). Besides, the CC50 in the series “in vitro” is greater than 20 µM.

Regarding `CCCCCCCCCCCCCCCCOP1(=O)CCCC(C(=O)OC)=C(C)O1` (centres unmarked) [CyC 11], the “antibacterial activity against M. tb (in words)” value (“antibacterial activity” below) in the series with M. tb H37Rv-GFP [1] is “non-active”.

For `CCCCCCCCCCCCCCCCCCOP1(=O)CCCC(C(=O)OC)=C(C)O1` (centres unmarked) [CyC 12], the “antibacterial activity” value in the series with M. tb H37Rv-GFP [1] is reported as “non-active”.

As for `CCCCCCCCCCCCCCCCOP1(=O)CCC(CCCCCCCCCC)C(C(=O)OC)=C(C)O1` (centres unmarked) [CyC 13], the “antibacterial activity” value in the series with M. tb H37Rv-GFP [1] is listed as “did not yield any significant antibacterial activity”.

As to `CCCCCCCCCCCCCCCCOP1(=O)OC(C)=C(C(=O)OC)CCC1(F)F` (centres unmarked) [CyC 14], the “antibacterial activity” value in the series on M. tb H37Rv-GFP [1] is on record as “non-active”.

For `CCCCCCCCCCCCCCCCOP1(=O)OCCC(C(=O)OC)=C(C)O1` (centres unmarked) [CyC 17], the “Effect of pre-treatment on Desthiobiotin-FP labelled bands (SDS-PAGE)” value in [3] is “decrease in intensity of bands 1, 2 and 8; or disapearance of bands 3-7 and 9”. Also, the MIC50 was 0.52 ± 0.01 µM (≈ 0.232 µg/mL) in [4]; 0.55 ± 0.023 µM (≈ 0.246 µg/mL) in the series with M. tb mc^26230 WT (Mycobacterium tuberculosis, read-out: MIC50); 0.55 ± 0.023 µM (≈ 0.246 µg/mL) against M. tb mc^26230 WT; 0.5 µM (≈ 0.223 µg/mL) with M. tb H37Rv-GFP [1] (setting [10]); roughly 0.5 µM (≈ 0.223 µg/mL) in the series on M. tb H37Rv-GFP [1] (Mycobacterium tuberculosis, H37RV, read-out: Extracellular MIC50); 0.50 µM (≈ 0.223 µg/mL) with M. tb H37Rv-GFP [1] (setting [12]). Moreover, the CC50 in the series “in vitro” is greater than 100 µM. For the same molecule, the “Intracellular macrophage growth MIC50” value in series [2] is reported as “No effect”.

On to `CCCCCCCCCCCCCCCCO[P@]1(=O)OC[C@@H]2COC(=O)C2=C(C)O1` [CyC 18(α)], for which the MIC50 in the series on M. tb H37Rv-GFP [1] (setting [10]) was 24.4 µM (≈ 10.8 µg/mL). The same molecule had a CC50 in “in vitro” greater than 100 µM. The “Intracellular macrophage growth MIC50” value in [2] is “No effect”.

On to `CCCCCCCCCCCCCCCCO[P@]1(=O)OC[C@H]2COC(=O)C2=C(C)O1` [CyC 18(β), Cyclipostins P], for which, in the series with M. tb H37Rv-GFP [1] (setting [10]), the MIC50 turned out to be 1.7 µM (≈ 0.756 µg/mL). This molecule also had a CC50 in “in vitro” greater than 100 µM. Also, the “Intracellular macrophage growth MIC50” value in [2] is reported as “No effect”.

Regarding `CCc1cc(C(N)=S)ccn1` [Ethionamide (ETO), Ethionamide], in the series on M. tb H37Rv-GFP [5], the “Extracellular growth MIC50” value is reported as 6.0 µM. Also, the CC50 in series [6] (listed as ethionamide) was no less than 120 µM; in [6], 120 µM. In addition, the “Intracellular macrophage growth MIC50” value in series [7] was 6.0 µM.

For `NNC(=O)c1ccncc1` [Isoniazid (INH), Isoniazid], the “Extracellular growth MIC50” value in the series on M. tb H37Rv-GFP [5] is 1.2 µM. The CC50 in [6] was greater than 150 µM. Also, in [7], the “Intracellular macrophage growth MIC50” value is recorded as 1.2 µM.

Regarding `CCCCCCCCCCC[C@@H](C[C@@H]1OC(=O)[C@H]1CCCCCC)OC(=O)[C@H](CC(C)C)NC=O` [Orlistat], in the series with M. tb [8], the MIC (commonly the smallest concentration in the dilution series that meets the test's criterion for growth inhibition) was ~ 6 µM and the MIC drop is listed as 16 fold. The MIC with M. tb [9] was 25 to 50 µM.

On to `CO[C@H]1/C=C/O[C@@]2(C)Oc3c(C)c(O)c4c(O)c(c(/C=N/N5CCN(C)CC5)c(O)c4c3C2=O)NC(=O)/C(C)=C\C=C\[C@H](C)[C@H](O)[C@@H](C)[C@@H](O)[C@@H](C)[C@H](OC(C)=O)[C@@H]1C` [Rifampicin (RIF), Rifampicin], for which, in the series with M. tb H37Rv-GFP [5], the “Extracellular growth MIC50” value is recorded as 0.01 µM. In addition, the CC50 in [6] was 24 µM. Besides, the “Intracellular macrophage growth MIC50” value in series [7] was 2.9 µM.

Lalistat: in the series on M. tb [8], the MIC is 6 to 12 µM and the MIC drop is given as 4 fold. For the same molecule, the MIC in the series on M. tb [9] was 25 to 50 µM.

MmPPOX: the MIC in the series on M. tb [9] was 25 to 50 µM.
